We go through three compounds from article PMC5937873, “Improving the biopharmaceutical attributes of mangiferin using vitamin E-TPGS co-loaded self-assembled phosholipidic nano-mixed micellar systems” (Drug Delivery and Translational Research, 2018).

The nature of data set [1]: In vivo pharmacokinetic studies. To be noted: rat, oral, Mgf equivalent to 30 mg/kg. The procedure:
In vivo pharmacokinetic studies were conducted by sparse sampling designed experiment. The formulations were administered through oral gavage on two groups of rats (n = 60). Within each group, five subgroups were designated (5 × 6 = 30 animals were employed in one group) and from one animal maximum two blood samples were withdrawn during the entire study alternating between left and right eyes. Group I was administered plain Mgf solution and Group II was given Mgf-SPNMS containing Mgf equivalent to 30mg/Kg. The animals were anesthetized employing isoflurane, and the blood (200 μL) was withdrawn from the retro-orbital plexus of rats at 0.5, 1, 2, 3, 6, 12, 18, 24, and 36 h, in heparin-coated micro-centrifuge tubes.
Further, plasma was harvested by centrifugation at 10,000 rpm (559 g) for 5 min and analyzed for Mgf using the previously reported and validated HPTLC method. The data were analyzed by non-compartmental and compartmental pharmacokinetic modeling approaches using the WinNonlin software, version 5.0 ([…]). Statistical tests like one-way/two-way ANOVA followed by post hoc multiple comparison tests, and Student’s independent t test has been applied wherever applicable.

A further data set deals with vital organs. Kind of data set: Histopathology of vital organs (in vivo toxicity). To be noted: SD female rats, 30 mg/kg Mgf oral gavage, three times per week for 4 weeks.
For another data set, the system named is whole blood. Put plainly: Hematological studies (whole blood count, RBC morphology). To be noted: SD female rats, 30 mg/kg Mgf oral gavage, three times per week for 4 weeks.
Data set [2] is described as follows: Biopharmaceutics classification (BCS). To be noted: by virtue of low aqueous solubility and lipophilicity.
The nature of data set [3]: Equilibrium solubility studies in emulgents and cosolvents. Type of data set: physicochemical. To be noted: 37 ± 1 °C. As to the method:
Solubility studies for Mgf were carried out for 72 h at 37 ± 1 °C in a water bath by adding an excess amount of drug in various water-soluble emulgents, viz. Acconon CC-6, Cremophor RH40, Cremophor EL, Vitamin E TPGS, Labrafil […], Labrasol, Tween 80 and Tween 40. Cosolvents employed included Transcutol HP, PEG 200, and propylene glycol. Aliquots of the filtrate were suitably diluted with methanol and analyzed using the HPTLC method previously reported by the authors at a λmax of 262 nm.

The conditions of data set [4]: excised rat small intestine, 2 h.
The next data set addresses T1, BCRP transporters (Homo sapiens, UniProt Q9UNQ0).
T1 construct: endogenous in cells; host or cells: MCF-7 and MDA-MB-231 cells
T1 sequence (Q9UNQ0 1-655): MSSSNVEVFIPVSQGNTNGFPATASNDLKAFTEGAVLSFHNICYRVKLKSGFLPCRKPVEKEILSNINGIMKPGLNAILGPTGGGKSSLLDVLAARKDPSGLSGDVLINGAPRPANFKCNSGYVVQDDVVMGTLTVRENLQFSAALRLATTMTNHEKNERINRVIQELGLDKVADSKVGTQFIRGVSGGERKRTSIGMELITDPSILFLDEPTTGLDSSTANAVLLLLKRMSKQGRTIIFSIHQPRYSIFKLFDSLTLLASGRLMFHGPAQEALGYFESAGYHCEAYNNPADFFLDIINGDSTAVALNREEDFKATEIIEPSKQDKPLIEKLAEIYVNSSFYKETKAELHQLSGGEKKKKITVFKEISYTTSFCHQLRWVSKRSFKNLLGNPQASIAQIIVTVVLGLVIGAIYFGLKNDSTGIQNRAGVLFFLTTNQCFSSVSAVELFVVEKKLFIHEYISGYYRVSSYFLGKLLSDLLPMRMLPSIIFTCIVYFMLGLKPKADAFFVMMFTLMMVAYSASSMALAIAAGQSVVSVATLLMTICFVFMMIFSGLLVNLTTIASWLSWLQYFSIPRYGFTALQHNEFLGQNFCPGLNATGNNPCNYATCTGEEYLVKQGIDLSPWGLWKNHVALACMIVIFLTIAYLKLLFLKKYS
Put plainly: P-gp efflux assay with DiOC2 dye (multi-drug resistance dye efflux kit). The note with it: MCF-7 and MDA-MB-231 cells, 37 °C. Type of data set: cell-based. The procedure: (§1) Overexpression of P-gp in MCF-7 and MDA-MB-231 cells is well-documented in literature. […] For evaluating the P-gp efflux, the multi-drug resistance dye efflux assay kit (Chemicon International, USA) was employed in which the MCF-7 and MDA-MB-231 cells (2.5 × 10^5) were treated with Rh-123 and DiOC2 dyes, with or without vinblastine. To assess the inhibitory activity of SPNMS on MDR1 transporters, these were incubated with Rh-123 alone, Rh-123 with SPNMS, and Rh-123 with vinblastine at 37 °C, along with Rh-123 at 4 °C. Likewise, to estimate the potential of the developed SPNMS formulation for blocking the activity of BCRP transporters, DiOC2 dye was employed. On similar heels, MCF-7 and MDA-MB-231 cells (2.5 × 10^5) were incubated with DiOC2 alone, DiOC2 with SPNMS, and DiOC2 with vinblastine at 37 °C, along with DiOC2 at 4 °C. The fluorescence intensity was measured in a TECAN fluorescence microplate reader at an excitation wavelength of 485 nm and an emission wavelength of 530 nm.

A further data set addresses T2, MDR1 transporters (Homo sapiens, UniProt P08183).
T2 construct: Overexpression of P-gp in MCF-7 and MDA-MB-231 cells is well-documented in literature; endogenous in cells; host or cells: MCF-7 and MDA-MB-231 cells
Kind of data set: P-gp efflux assay with Rh-123 dye (multi-drug resistance dye efflux kit). In kind it is cell-based. To be noted: MCF-7 and MDA-MB-231 cells, 37 °C. As to the method: as §1

≈ marks a conversion by molar mass, not a printed value. Where two headings read alike, the source gives them in different places.

T2 sequence (P08183 whole entry): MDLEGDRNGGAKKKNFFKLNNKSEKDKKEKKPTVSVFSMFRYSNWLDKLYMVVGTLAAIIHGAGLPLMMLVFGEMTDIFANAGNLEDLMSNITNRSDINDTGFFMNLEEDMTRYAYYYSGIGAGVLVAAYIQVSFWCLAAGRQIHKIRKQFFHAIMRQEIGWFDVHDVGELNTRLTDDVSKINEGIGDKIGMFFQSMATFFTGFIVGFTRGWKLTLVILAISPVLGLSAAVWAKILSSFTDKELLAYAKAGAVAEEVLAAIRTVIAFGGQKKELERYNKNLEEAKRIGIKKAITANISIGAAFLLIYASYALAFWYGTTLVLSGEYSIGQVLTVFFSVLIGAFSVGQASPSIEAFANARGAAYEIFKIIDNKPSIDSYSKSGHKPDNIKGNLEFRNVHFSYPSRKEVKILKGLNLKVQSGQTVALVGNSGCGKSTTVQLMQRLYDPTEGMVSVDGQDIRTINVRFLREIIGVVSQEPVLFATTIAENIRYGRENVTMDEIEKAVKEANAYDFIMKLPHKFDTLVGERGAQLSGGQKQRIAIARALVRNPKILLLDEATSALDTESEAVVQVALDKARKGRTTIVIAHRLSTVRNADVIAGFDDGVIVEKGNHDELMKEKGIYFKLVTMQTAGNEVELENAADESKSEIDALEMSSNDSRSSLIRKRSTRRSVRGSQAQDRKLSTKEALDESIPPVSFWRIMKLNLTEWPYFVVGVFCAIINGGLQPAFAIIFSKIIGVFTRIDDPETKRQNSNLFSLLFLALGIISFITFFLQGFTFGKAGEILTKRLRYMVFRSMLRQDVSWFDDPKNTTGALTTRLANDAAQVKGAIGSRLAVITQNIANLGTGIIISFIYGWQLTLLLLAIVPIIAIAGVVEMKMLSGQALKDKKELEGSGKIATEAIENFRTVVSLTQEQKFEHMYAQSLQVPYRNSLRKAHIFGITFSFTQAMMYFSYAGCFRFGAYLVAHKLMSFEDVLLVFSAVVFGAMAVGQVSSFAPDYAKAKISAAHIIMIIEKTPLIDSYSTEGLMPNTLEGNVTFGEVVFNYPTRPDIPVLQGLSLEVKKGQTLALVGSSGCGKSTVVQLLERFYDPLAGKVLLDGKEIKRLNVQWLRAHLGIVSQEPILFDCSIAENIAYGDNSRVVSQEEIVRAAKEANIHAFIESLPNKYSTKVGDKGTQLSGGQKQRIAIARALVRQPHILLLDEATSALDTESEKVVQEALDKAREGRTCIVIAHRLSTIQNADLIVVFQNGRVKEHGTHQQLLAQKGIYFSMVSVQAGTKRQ

As a reminder, the Cmax is the highest concentration seen after dosing. A word on the MRT: it is a mean duration of stay, worked out from the concentration-time curve. Broadly, the Tmax is the time from dosing to the highest level. For the compound `O=c1c2cc(O)c(O)cc2oc2cc(O)c([C@@H]3O[C@H](CO)[C@@H](O)[C@H](O)[C@H]3O)c(O)c12` [Mgf, mangiferin], in data set [1] (plasma), the Cmax amounted to 297 ± 56.4 ng/mL, the MRT amounted to 8.16 ± 1.73 h and the Tmax stood at 3.08 ± 0.18 h. Moreover, in data set [1], the Cl stood at 2543.44 ± 453.42 mL/h and the Ka came to 0.32 ± 0.09 h⁻¹. In the data set on vital organs, the “histopathological change(s) in vital organs” value is on record as “no histopathological change(s)”. Besides, in the data set with whole blood, the HCT is 43.9%, the HGB is listed as 14.54 g/dL, the PLT count entry is reported as “AG* 589 × 10^3/μL” and the RBC count amounted to 8.21e+06 µL⁻¹. The compound further came in with a WBC count with whole blood of 16400 µL⁻¹. The BCS class result in data set [2] was “BCS class IV”. The solubility thermodynamic at 72 h in data set [3] (PEG 200 (cosolvent), highest among cosolvents, read-out: equilibrium solubility in PEG 200) amounted to 10.2 mg/mL (≈ 24.2 mM). Besides, the solubility thermodynamic at 72 h in data set [3] (vitamin E TPGS (water-soluble emulgent), maximum among surfactants, read-out: equilibrium solubility in vitamin E TPGS) was 17.6 mg/mL (≈ 41.8 mM).

Turning to `COC(=O)c1ccccc1-c1c2ccc(=N)cc-2oc2cc(N)ccc12` [Rh-123, Rhodamine 123], in data set [4], the “intestinal permeation (CLSM)” value is on record as “does not permeate through the intestine”.

Turning to `CC[C@]1(O)C[C@@H]2CN(CCc3c([nH]c4ccccc34)[C@@](C(=O)OC)(c3cc4c(cc3OC)N(C)[C@H]3[C@@](O)(C(=O)OC)[C@H](OC(C)=O)[C@]5(CC)C=CCN6CC[C@]43[C@@H]65)C2)C1` [vinblastine], the “inhibition of DiOC2 efflux (fluorescence intensity)” value on BCRP transporters was “higher fluorescence intensity without any efflux”. For the same compound, the “inhibition of Rh-123 efflux (fluorescence intensity)” value on MDR1 transporters is “higher fluorescence intensity without any efflux”.
